From patent publication US11345761B2, “Esterified selenium polysaccharide and preparation method and use therefor” (AI-MAY ZHONG KE SELENIUM TECHNOLOGY (TIANJIN) CO., LTD, priority 2018, dated 2022)

Tests used:
IL-4 = IL-4 expression in B-6 splenocytes, flow cytometry; assay type: cell-based; conditions: 2 to 5 micrograms selenium/mL, 48 hours, compared with 1,3-glucose hexasaccharide
Protocol: (§1) B-6 splenocytes were used as the experimental model. Carrageenan, chitohexaose, 1,3-glucose hexasaccharide, PMA+innomycin were used as controls and incubated in the culture medium containing the esterified selenium polysaccharide of the present invention (2 to 5 micrograms selenium/mL) for 48 hours to detect the expression of IL-4 and IFN-γ thereof.
(§2) In the Example, the culture medium for culturing B-6 spleen cells is the culture medium for culturing B-6 spleen cells conventionally in the art, and contains essential and non-essential amino acids, vitamins, glucose, hormones, growth factors, trace minerals and low-concentration fetal bovine serum (2%) and 5 mi penicillin/streptomycin solution. The buffer system of the medium is phosphate buffered saline solution PBS, and the pH value is 7.4 after equilibrating in a cell incubator containing 5% CO2.
(§3) After the cells were harvested, they were stained with BD Bioscience's Cytofix/Cytoperm kit and detected by flow cytometry.

[1] = tested on: superoxide dismutase (SOD); test: Serum SOD activity after feeding chicks; assay type: in vivo; conditions: 5 micrograms of selenium/day
Protocol: (§4) Chicks, which were used as a model, were fed with the esterified selenium polysaccharide of the present invention continuously at a dose of 5 micrograms of selenium/day after birth. A polysaccharide without the esterified selenium was used as a control. On days 7, 14, 21, and 28 after feeding, the assay of the activity of glutathione peroxidase (GSH-Px) and superoxide dismutase (SOD) was performed (using commercially available kits EnzyChrom™ Glutahione Peroxidase Assay Kit and MIBio Mouse superoxide dismutase (SOD) kit for completion of the assay).

[2] = tested on: glutathione peroxidase (GSH-Px); test: Serum GSH-Px activity after feeding chicks; assay type: in vivo; conditions: 5 micrograms of selenium/day
Protocol: as §4

IFN-γ = IFN-γ expression in B-6 splenocytes, flow cytometry; assay type: cell-based; conditions: 2 to 5 micrograms selenium/mL, 48 hours, compared with 1,3-glucose hexasaccharide
Protocol: as §1, §2, §3

[3] = Blood detection after feeding mice; assay type: in vivo; design: red blood cell: unit not given here
Source text: Mice, which were used as a model, were fed with the esterified selenium polysaccharide prepared by the present invention continuously at a selenium dose of 2 to 5 micrograms of selenium/day for 2 weeks. A polysaccharide without the esterified selenium was used as a control. […] The above-mentioned detection data became stable starting from week 5.

[4] = fed 2 to 5 micrograms of selenium/day, week 3 to week 6

esterified selenium polysaccharide
increase of maximum expression of IL-4 (IL-4): 60% | Serum SOD ([1]; Day 1): 180 U/mg | Serum SOD ([1]; Day 7): 191 U/mg | Serum SOD ([1]; Day 14): 195 U/mg | Serum SOD ([1]; Day 21): 190 U/mg | Serum SOD ([1]; Day 28): 187 U/mg | increase of SOD at maximum ([1]; maximum on days 7-14): 12% | Serum GSH-Px ([2]; Day 1): 1869 U/mg | Serum GSH-Px ([2]; Day 7): 1879 U/mg | Serum GSH-Px ([2]; Day 14): 1975 U/mg | Serum GSH-Px ([2]; Day 21): 2150 U/mg | Serum GSH-Px ([2]; Day 28): 2090 U/mg | increase of chick GHS-Px activity at maximum ([2]; maximum on days 14-21): 15% | increase of maximum expression of IFN-γ (IFN-γ): 36% | Selenium content in serum ([3]; Week 1, 2 μg/day selenium): 0.4 µg/L | red blood cell ([3]; Week 1, 2 μg/day selenium): 9.58 ×10^6 | white blood cell ([3]; Week 1, 2 μg/day selenium): 7260 mL⁻¹ | Selenium content in serum ([3]; Week 1, 5 μg/day selenium): 0.7 µg/L | red blood cell ([3]; Week 1, 5 μg/day selenium): 9.66 ×10^6 | white blood cell ([3]; Week 1, 5 μg/day selenium): 7290 mL⁻¹ | Selenium content in serum ([3]; Week 3, 2 μg/day selenium): 2.9 µg/L | red blood cell ([3]; Week 3, 2 μg/day selenium): 9.75 ×10^6 | white blood cell ([3]; Week 3, 2 μg/day selenium): 7360 mL⁻¹ | Selenium content in serum ([3]; Week 3, 5 μg/day selenium): 4.5 µg/L | red blood cell ([3]; Week 3, 5 μg/day selenium): 9.97 ×10^6 | white blood cell ([3]; Week 3, 5 μg/day selenium): 7570 mL⁻¹ | Selenium content in serum ([3]; Week 4, 2 μg/day selenium): 6.1 µg/L | red blood cell ([3]; Week 4, 2 μg/day selenium): 10.5 ×10^6 | white blood cell ([3]; Week 4, 2 μg/day selenium): 7590 mL⁻¹ | Selenium content in serum ([3]; Week 4, 5 μg/day selenium): 6.8 µg/L | red blood cell ([3]; Week 4, 5 μg/day selenium): 10.5 ×10^6 | white blood cell ([3]; Week 4, 5 μg/day selenium): 7910 mL⁻¹ | Selenium content in serum ([3]; Week 5, 2 μg/day selenium): 6.9 µg/L | red blood cell ([3]; Week 5, 2 μg/day selenium): 11.1 ×10^6 | white blood cell ([3]; Week 5, 2 μg/day selenium): 7960 mL⁻¹ | Selenium content in serum ([3]; Week 5, 5 μg/day selenium): 7.3 µg/L | red blood cell ([3]; Week 5, 5 μg/day selenium): 11.4 ×10^6 | white blood cell ([3]; Week 5, 5 μg/day selenium): 7990 mL⁻¹ | Selenium content in serum ([3]; Week 6, 2 μg/day selenium): 7.0 µg/L | red blood cell ([3]; Week 6, 2 μg/day selenium): 11.2 ×10^6 | white blood cell ([3]; Week 6, 2 μg/day selenium): 7960 mL⁻¹ | Selenium content in serum ([3]; Week 6, 5 μg/day selenium): 7.3 µg/L | red blood cell ([3]; Week 6, 5 μg/day selenium): 11.5 ×10^6 | white blood cell ([3]; Week 6, 5 μg/day selenium): 7990 mL⁻¹ | increase of red blood cells [3, 4]: 20% | increase of selenium content in serum [3, 4]: more than 30% | increase of white blood cells [3, 4]: 10%
